Assay results as given in article PMC8989868, “Structural mechanism of TRPM7 channel regulation by intracellular magnesium” (Cellular and Molecular Life Sciences: CMLS, 2022).

Biological target: T1, mouse TRPM7 (Mus musculus, UniProt Q923J1)
T1 construct: full-length channel-kinase, untagged, in bicistronic pIRES2-EGFP, transiently expressed in HEK293T cells; homotetramer
Assay: whole-cell patch clamp, current at +[…] mV
Assay type: cell-based
Conditions: external NS8593, inhibitor; Mg2+-free intracellular solution; pH 7.2

T1 sequence (Q923J1 whole entry): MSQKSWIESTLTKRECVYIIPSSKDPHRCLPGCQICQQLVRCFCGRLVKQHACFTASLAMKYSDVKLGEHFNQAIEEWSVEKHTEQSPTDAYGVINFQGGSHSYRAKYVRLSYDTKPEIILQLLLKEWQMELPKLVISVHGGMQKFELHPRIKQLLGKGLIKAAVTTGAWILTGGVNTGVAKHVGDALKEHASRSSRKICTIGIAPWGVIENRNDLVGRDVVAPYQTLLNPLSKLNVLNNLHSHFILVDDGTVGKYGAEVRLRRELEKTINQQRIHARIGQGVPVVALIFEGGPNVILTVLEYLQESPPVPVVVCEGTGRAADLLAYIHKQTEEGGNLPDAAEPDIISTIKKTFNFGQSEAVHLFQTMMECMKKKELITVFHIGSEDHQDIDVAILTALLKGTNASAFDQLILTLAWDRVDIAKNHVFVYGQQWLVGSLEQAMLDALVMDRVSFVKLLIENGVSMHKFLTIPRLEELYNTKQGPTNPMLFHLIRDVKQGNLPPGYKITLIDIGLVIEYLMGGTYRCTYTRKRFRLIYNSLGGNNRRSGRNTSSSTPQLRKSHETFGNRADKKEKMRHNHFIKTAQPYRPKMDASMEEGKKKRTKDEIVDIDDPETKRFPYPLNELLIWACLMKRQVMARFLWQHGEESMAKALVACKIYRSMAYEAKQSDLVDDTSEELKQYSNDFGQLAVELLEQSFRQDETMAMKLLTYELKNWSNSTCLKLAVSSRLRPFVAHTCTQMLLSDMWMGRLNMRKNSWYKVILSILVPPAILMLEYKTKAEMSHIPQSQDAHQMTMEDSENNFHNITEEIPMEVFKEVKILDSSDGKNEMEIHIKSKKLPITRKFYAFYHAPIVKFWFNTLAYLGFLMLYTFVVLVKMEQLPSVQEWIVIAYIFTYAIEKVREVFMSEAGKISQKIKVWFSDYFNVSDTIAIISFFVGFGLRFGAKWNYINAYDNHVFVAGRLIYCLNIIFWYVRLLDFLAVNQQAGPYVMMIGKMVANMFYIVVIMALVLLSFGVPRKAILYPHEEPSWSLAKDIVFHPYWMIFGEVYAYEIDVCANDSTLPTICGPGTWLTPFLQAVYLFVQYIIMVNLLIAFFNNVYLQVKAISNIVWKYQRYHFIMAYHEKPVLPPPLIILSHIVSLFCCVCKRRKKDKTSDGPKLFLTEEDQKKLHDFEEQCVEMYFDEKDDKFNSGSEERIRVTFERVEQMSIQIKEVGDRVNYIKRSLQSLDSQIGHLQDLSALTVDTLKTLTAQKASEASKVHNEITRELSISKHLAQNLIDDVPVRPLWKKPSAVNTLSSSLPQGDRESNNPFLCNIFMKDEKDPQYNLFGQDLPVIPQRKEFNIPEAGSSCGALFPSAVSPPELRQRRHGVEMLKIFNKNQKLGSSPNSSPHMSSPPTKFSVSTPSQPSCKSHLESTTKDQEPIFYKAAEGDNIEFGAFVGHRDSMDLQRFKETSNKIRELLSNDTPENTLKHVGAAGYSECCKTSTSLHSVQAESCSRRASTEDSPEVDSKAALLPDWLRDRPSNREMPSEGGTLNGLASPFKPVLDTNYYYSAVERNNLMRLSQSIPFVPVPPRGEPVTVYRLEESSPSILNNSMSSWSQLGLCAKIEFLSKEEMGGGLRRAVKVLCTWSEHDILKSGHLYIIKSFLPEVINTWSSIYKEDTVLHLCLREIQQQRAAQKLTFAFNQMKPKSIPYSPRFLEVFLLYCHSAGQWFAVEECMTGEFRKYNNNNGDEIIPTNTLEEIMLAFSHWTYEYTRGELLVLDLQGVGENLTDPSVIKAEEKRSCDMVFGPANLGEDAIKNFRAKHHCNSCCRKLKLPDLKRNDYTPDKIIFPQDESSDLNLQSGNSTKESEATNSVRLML

c1ccc2c(c1)CCC[C@H]2Nc1nc2ccccc2[nH]1 [NS8593]
current inhibition at 10 μM: NS8593 caused a rapid inhibition of WT and N1097Q currents
